Source: publication PMC3772838, “Preclinical Development of a Novel Class of CXCR4 Antagonist Impairing Solid Tumors Growth and Metastases” (PLoS ONE, 2013)

Tests used:
[1] = tested on: B16-CXCR4 murine melanoma cells; assay: B16-CXCR4 melanoma lung metastases model; assay type: in vivo, C57BL/6 mice; settings: cells pre-treated 30 min with 10 µM, IP once a day for 10 days, peptides 2 mg/kg, AMD3100 1.25 mg/kg
Method: (§1) All mice were obtained from Harlan (Bar Harbor, ME, USA) and their care was in accord with institutional guidelines. Twenty-five 6-8-week-old female C57BL/6 mice were inoculated into the tail vein with 5×10^5 B16–CXCR4 cells pre-treated for 30 minutes with peptide S (10 µM), peptide R (10 µM), peptide I (10 µM), or AMD3100 (10 µM). Six hours later intraperitoneal (IP) treatment started with AMD3100 (1.25 mg/kg) or each peptide (2 mg/kg) in sterile PBS once a day for 10 days. A week later the mice were sacrificed. The experiment was repeated three times. The lung metastases assay was also conducted with K7M2 murine osteosarcoma cells. Twenty-five 6-8-week-old female Balb/c mice were injected via tail vein with 2.5×10^5 K7M2 cells pre-treated for 30 minutes with AMD3100 (10 µM), peptide S (10 µM), peptide R (10 µM), peptide I (10 µM) and animals were treated IP daily for 15 days with 2.5 mg/kg for AMD3100 group and 10 mg/kg for each peptide groups. A week later the mice were sacrificed. Xenograft tumor growth was evaluated using pEGFP-SN12C cells in exponential growth phase subcutaneously injected into the right flank of twenty-five 6-8-week-old female CD1 nude mice. 2×10^6 SN12C-pEGFP were injected in the right flank of each mouse and treated with AMD3100 (1.25 mg/kg) and peptides (2 mg/kg) for 10 days ip. A week later mice were euthanized and tumor volume evaluated through Leica MacroFluo fluorescence stereomicroscope (Leica microsystem, Houston, TX). The experiment was repeated three times. The Istituto Nazionale per lo Studio e la Cura dei Tumori, Fondazione Giovanni Pascale Independent Etical Comettee approved the study (CEI/600/12).
(A) B16-CXCR4 tumor cells pre-treated for 30 minutes with AMD3100 (10 µM), peptide R (10 µM), peptide I (10 µM), or peptide S (10 µM) were inoculated into the tail vein of C57/B female mice and the mice were further treated intraperitoneally for 10 days with 1.25 mg/kg AMD3100, or 2 mg/kg peptide R, peptide I or peptide S. Gross examination of representative lungs; (B) Graphical representation of the number of lung metastases in treated mice. Double tailed T-Test was used for statistical analyses. The experiments were repeated three times.

P-ERK1/2 = assay: CXCL12-induced p-ERK induction (immunoblotting); assay type: cell-based, human; settings: PES43 cells serum-starved, CXCL12 100 ng/ml, after 5 minutes
Method: Cells were homogenized in lysis buffer (40 mM Hepes pH 7,5, 120 mM NaCl, 5 mM MgCl2, 1 mM EGTA, 0,5 mM EDTA, 1% Triton X-100) containing protease (Complete Tablets- EDTA-free, Roche) and phosphatase inhibitors (20 mM α-glycerol-3-phosphate, 2,5 mM Na-pyrophosphate). The following primary antibodies were used: anti-p-ERK (sc7383, Santa Cruz Biotechnology, Inc., Santa Cruz, CA, USA) and anti-ERK2 (sc 154G, Santa Cruz Biotechnology CA, USA). P-Erk induction was plotted as ratio P-Erk in the presence of CXCL12 (100 ng/ml)/P-Erk in serum free.
(§2) Experiments were conducted using PES43 cells. (A) Migration was assayed in 24-well Transwell chambers using inserts with 8-µm pore membrane. […] Migrated cells on the lower surface were fixed, stained with H&E and counted microscopically. The results are expressed as the migration index relative to migration in presence of BSA alone. […] Images were acquired with OKO Time Lapse. […] PES43 cells were serum-starved and incubated with CXCL12 (100 ng/ml) alone or in presence of AMD3100/peptides. Each peptide was tested in at least three different experiments. Double tailed T-Test was used for statistical analyses. Differences were considered significant at P<0.05 compared to control.
PES43 cell lines were serum starved for 16 hours. […] (TIF) Click here for additional data file.

[2] = tested on: SN12C-EGFP renal cancer cells; assay: SN12C-pEGFP subcutaneous xenograft tumor growth; assay type: in vivo, CD1 nude mice; settings: IP 10 days, peptides 2 mg/kg, AMD3100 1.25 mg/kg; measured a week later by fluorescence stereomicroscope; control 65.97±35.1; average
Method: as §1
6 to 8-week-old female CD1 nude mice were injected subcutaneously with 2×10^6 pEGFP-SN12C cells pre-treated with 10 µM AMD3100 or 10 µM of each peptide. Beginning the following day mice were further treated intraperitoneally for 10 days with 1.25 mg/kg AMD3100 or 2 mg/kg of peptides R, I or S. A week later mice were euthanized and tumor volume evaluated directly from the flank of mice using a Leica MacroFluo fluorescence stereomicroscope (Leica microsystem, Houston, TX) (A). The experiments were repeated three times. B. SN12C-PEGFP cells migration toward CXCL12 in the presence of AMD3100 or Peptide R, S and I.

[3] = tested on: PES43 human melanoma cells; assay: CXCL12-dependent Transwell migration of PES43 cells; assay type: cell-based; settings: 100 ng/mL CXCL12 in lower chamber, 16 h, tested 10 nM, 100 nM, 1 µM, 10 µM
Method: (§3) Migration was assayed in 24-well Transwell chambers (Corning Inc., Corning, NY) using inserts with an 8-µm pore membrane. Membranes were precoated with collagen (human collagen type I/III) and fibronectin (20 µg/mL each). […] After 16 h incubation, cells on the upper surface of the filter were removed using a cotton wool swab; migration of cells in migration media alone was compared with migration in media containing CXCL12. The cells were counted in ten different fields (original magnification ×40). The migration index was defined as the ratio between migrating cells in the experimental group and migrated cells in the control group. For the wound closure assay, tested cells were allowed to reach confluence in six-well plates containing serum-depleted growth medium and scratched with pipette tips to make wounds. The wound closure was observed microscopically 6 hours post-wounding (OKO Time Lapse).
as §2

[4] = tested on: PES43 human melanoma cells; assay: CXCL12-mediated wound closure assay; assay type: cell-based; settings: 6 hours post-wounding
Method: as §3, §2

CXCR4 [5] = assay: Competition with 12G5 anti-CXCR4 antibody binding (flow cytometry); design: species or system human; settings: CCRF-CEM cells, 10 µM peptide, 30 min pre-incubation at 37°C, PE-labelled 12G5, flow cytometry; at least three experiments
Method: (§4) CXCR4 binding was evaluated as previously described. Briefly 5×10^5 CCRF–CEM cells were pre-incubated with 10 µM peptides or AMD3100 in binding buffer (PBS 1× plus 0.2% BSA and 0.1% NaN3) for 30 minutes at 37°C, 5% CO2 and then labeled for 30 minutes with anti-CXCR4 PE-antibody (FAB170P, clone 12G5, R&D Systems, Minneapolis, MN, USA). The cells were analyzed by FACS Canto II cytofluorometer (Becton Dickinson Immunocytometry Systems, Mountain View, CA, USA).
(§5) (A) The amount of peptides or AMD3100 bound was assessed indirectly by flow cytometry using the PE-labelled anti-CXCR4 antibody (clone 12G5). Results are expressed as the percent antibody bound. (B) The Ca^2+ influx assay was performed using CCRF-CEM cells and Fluo-3 AM calcium indicator. CCRF-CEM cells were incubated 30 minutes at 37°C with Fluo-3 AM and 15 minutes with AMD3100 (10 µM)/peptides (10 µM) and then treated with CXCL12. Results are expressed as the percent of Fluo-3 AM fluorescence in presence of CXCL12 alone. Each peptide was tested in at least three different experiments. Double tailed T-Test was used for statistical analyses. Differences were considered significant at P<0.05 compared to control. Control (CTRL).

CXCR4 [6] = assay: CXCL12-induced calcium mobilization assay (Fluo-3 AM); assay type: cell-based, human; settings: CCRF-CEM cells, 10 µM peptide, percent of fluorescence with CXCL12 alone; at least three experiments
Method: For the calcium efflux studies a 2 mg/mL stock solution of Fluo-3 acetoxymethylester (Invitrogen, Carlsbad, CA) in anhydrous DMSO was used. […] CCRF–CEM cells were resuspended in cell loading buffer (PBS, 1% FCS, 1 mmol/L MgCl2, and 1 mmol/L CaCl2) at 5×10^5 cells/mL. Fluo-3AM and Pluronic acid were added to each sample to increase Fluo-3AM solubility and improve dye loading into the cells. Baseline calcium efflux was established, then chemokines were added as indicated and chemokine-induced calcium efflux was measured.
as §5

CXCR7 = assay: Anti-CXCR7 antibody (clone 11G8) binding in CXCR7 overexpressing cells; design: species or system human; settings: MCF-7 cells; peptides 10 µM, CXCL11 100 nM, 30 min pre-incubation; Figure S3
Method: [The procedure below names another target; the source says it served here with some conditions changed.] as §4
(§6) Fluo-3AM and Pluronic acid were added to each sample to increase Fluo-3AM solubility and improve dye loading into the cells. (TIF) Click here for additional data file.

CXCR3 = assay: Anti-CXCR3 antibody (clone 1C6/CXCR3) binding in CXCR3 overexpressing cells; design: species or system human; settings: COLO205 cells; peptides 10 µM, CXCL11 100 nM, 30 min pre-incubation; Figure S3
Method: [The procedure below names another target; the source says it served here with some conditions changed.] as §4, §6

c1cc(CN2CCCNCCNCCCNCC2)ccc1CN1CCCNCCNCCCNCC1 [AMD3100, reference compound]
fold reduction of the number of lung metastases vs control [1]: 5.6 fold | number of lung metastases ([1]; control 8.4±3.49, average): 1.5±2.9 | CXCL12-mediated p-ERK induction (P-ERK1/2): reduced | tumor volume of SN12C-GFP xenograft [2]: 35.53±10.42 mm^3

Arg-Ala-[Cys-Arg-Tyr-Trp-Cys] [Peptide T]
concentration at which CXCL12-dependent migration was inhibited [3]: ≤ 10 nM | CXCL12-mediated wound healing [4]: delayed | CXCL12-mediated p-ERK induction (P-ERK1/2): not | association of the 12G5-CXCR4 antibody to the receptor (CXCR4 [5]): 22 % of control | CXCL12-induced calcium efflux (Fluo-3 AM fluorescence) (CXCR4 [6]): 33.65 % of control

CXCL11: specific ligand (chemokine) that inhibited antibody binding to CXCR3 or CXCR7
binding to CXCR7 (anti-CXCR7 antibody) (CXCR7): inhibited | binding to CXCR3 (anti-CXCR3 antibody) (CXCR3): inhibited
